Data on six compounds can be found in the supplement of paper PMC11061612.

Test in all cases: Bliss excess, mean over the matrix (fraction); higher = more synergy
One test concerns CHL-1 (Melanoma). The procedure, abridged:
(§1)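 Cell lines grown in DMEM/F12 or RPMI with 10% FBS were plated in 1536-well plates and held 24 hours at 37°C, 5% CO2 before 72 hours of exposure to two-drug dose matrices, with DMSO typically at 0.2%. CellTiter-Glo 2.0 luminescence gave viability, which was converted to inhibition. Vehicle wells were set to 0 and blank wells to 1. Combination Emax is the second-highest inhibition in the matrix, and Bliss excess is the observed combination effect minus the expected EA + EB − EA·EB, where EA and EB are the single-agent effects.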

Test [1] has as its system CML-T1 (Chronic Myelogenous Leukemia). The procedure, abridged: as §1
The test system of test [2] is COLO-684 (Endometrial Carcinoma). The method in brief:
as §1

In test [3] the test system is Calu-6 (Non-Small Cell Lung Carcinoma). The procedure, abridged: as §1
Test [4] concerns EB-3 (Burkitt's Lymphoma). The procedure, abridged: as §1
The test system of test [5] is FLO-1 (Esophageal Adenocarcinoma). The method in brief:
as §1

Test [6] has as its system HSC-3 (Oral Cavity Carcinoma). The method in brief: as §1
The next test has as its system HuO-3N1 (Osteosarcoma). The procedure, abridged: as §1
Test [7] concerns JHH-1 (Hepatocellular Carcinoma). The procedure, abridged:
as §1

Another test deals with KYM-1 (Rhabdomyosarcoma). The method in brief:
as §1

The test system of test [8] is KYSE-70 (Esophageal Squamous Cell Carcinoma). The procedure, abridged: as §1
The subject of test [9] is NCI-H1155 (Non-Small Cell Lung Carcinoma). The procedure, abridged:
as §1

In test [10] the test system is NCI-H1623 (Lung Adenocarcinoma). The procedure, abridged:
as §1

Test [11] concerns NCI-H1755 (Lung Adenocarcinoma). The method in brief:
as §1

The test system of test [12] is NCI-H196 (Small Cell Lung Carcinoma). The method in brief: as §1
The test system of test [13] is OV-90 (Ovarian Carcinoma). The method in brief: as §1
Test [14] concerns RL95-2 (Endometrial Carcinoma). The method in brief:
as §1

The test system of test [15] is RPMI-8866 (Chronic Myelogenous Leukemia). The method in brief: as §1
Test [16] relates to SJRH30 (Rhabdomyosarcoma). The method in brief: as §1
The subject of test [17] is SK-MM-2 (Plasma Cell Myeloma). The procedure, abridged: as §1

Regarding `CN(CCO)CC[C@H](CSc1ccccc1)Nc1ccc(S(=O)(=O)NC(=O)c2ccc(N3CCC([C@@H](O)c4ccccc4-c4ccc(Cl)cc4)CC3)cc2)cc1S(=O)(=O)C(F)(F)F` [AZD4320] + C=CCn1c(=O)c2cnc(Nc3ccc(N4CCN(C)CC4)cc3)nc2n1-c1cccc(C(C)(C)O)n1 [AZD1775] (first compound max 1 µM, partner max 1 µM), the Bliss excess in the test with CHL-1 (Melanoma) is 0.0509; in [1] it was -0.0082; in test [2] it was -0.0301; in test [3] it was 0.0019; in [4], -0.0269; in test [5] it was 0.0293. Also, the Bliss excess in test [6] is -0.0083; with HuO-3N1 (Osteosarcoma), -0.0135; in test [7], 0.136; in the test with KYM-1 (Rhabdomyosarcoma), 0.0515; in [8], -0.0011; in test [9], 0.0675. Moreover, the Bliss excess in test [10] was 0.0318; in test [11] it was -0.0201; in test [12], 0.0268; in [13] it was 0.0909; in [14] it was 0.006; in [15], 0.0402. The Bliss excess in [16] was 0.0076; in [17] it was 0.0011.
Turning to `NC1(C(=O)N[C@@H](CCO)c2ccc(Cl)cc2)CCN(c2ncnc3[nH]ccc23)CC1` [Capivasertib] + CC(C)n1c(=O)n(C)c2cnc3cc(F)c(-c4ccc(OCCCN5CCCCC5)nc4)cc3c21 [AZD1390] (first compound max 10 µM, 7x7, partner max 0.3 µM), the Bliss excess with CHL-1 (Melanoma) is -0.0209; in test [1], 0.003; in test [2] it was -0.0909; in [3], -0.0391; in test [4], 0.0022; in test [5], -0.0398. The Bliss excess in [6] was -0.0746; in the test on HuO-3N1 (Osteosarcoma), -0.101; in test [7], -0.0495; in the test on KYM-1 (Rhabdomyosarcoma) it was -0.0278; in test [8], -0.063; in [9] it was -0.031. The Bliss excess in [10] was -0.024; in test [11], -0.0407; in test [12] it was -0.0439; in test [13], -0.0325; in test [14], -0.0709; in [15] it was 0.0503. In addition, the figures for the Bliss excess in test [16] and in [17] were -0.0373 and -0.115, respectively.
As to `CN(CCO)CC[C@H](CSc1ccccc1)Nc1ccc(S(=O)(=O)NC(=O)c2ccc(N3CCC([C@@H](O)c4ccccc4-c4ccc(Cl)cc4)CC3)cc2)cc1S(=O)(=O)C(F)(F)F` [AZD4320] + Cc1cc2ncnn2cc1Nc1ncc2c(n1)n(C1CCOCC1)c(=O)n2C [AZD7648] (first compound max 1 µM, 7x7, partner max 10 µM), the Bliss excess with CHL-1 (Melanoma) is -0.0391; in [1], 0.0044; in test [2], -0.0221; in [3], -0.0522; in [4], -0.0076; in test [5], -0.0358. For the same compound, the Bliss excess in [6] was -0.0051; in the test on HuO-3N1 (Osteosarcoma), 0.0015; in test [7], -0.0576; in the test on KYM-1 (Rhabdomyosarcoma), -0.018; in test [8] it was -0.0225; in test [9], 0.017. In addition, the Bliss excess in test [10] is -0.0206; in test [11], -0.0279; in [12] it was -0.0395; in test [13] it was -0.055; in [14], -0.0186; in test [15], 0.0654. In addition, the Bliss excess in [16] was -0.0072; in test [17], -0.0268.
On to `Cc1c2c(nn1C)CSCc1cc(n(C)n1)CSc1cc(c3ccccc3c1)OCCCc1c(C(=O)O)n(C)c3c-2c(Cl)ccc13` [AZD5991] + CN(C)CCCOc1ccc(-c2ccc3ncc4c(c3c2)n(C2CCOCC2)c(=O)n4C)cn1 [AZD0156] (first compound max 1 µM, 7x7, partner max 1 µM), for which the Bliss excess in the test on CHL-1 (Melanoma) was 0.0218; in [1], 0.0208; in [2] it was -0.0546; in [3] it was 0.0052; in test [4] it was -0.0005; in test [5] it was -0.0135. Also, the Bliss excess is 0.0527 in test [6]; -0.0067 in the test with HuO-3N1 (Osteosarcoma); 0.0048 in test [7]; 0.0046 with KYM-1 (Rhabdomyosarcoma); 0.0286 in test [8]; 0.0521 in test [9]. Besides, the Bliss excess is -0.015 in [10]; -0.0214 in test [11]; -0.0207 in test [12]; -0.0068 in test [13]; -0.0252 in test [14]; -0.026 in test [15]. In addition, the figures for the Bliss excess in test [16] and in test [17] were 0.0026 and 0.0254, respectively.
As for `CCN(CCO)CCCOc1ccc2c(Nc3cc(CC(=O)Nc4cccc(F)c4)[nH]n3)ncnc2c1` [AZD2811] + C[C@@H]1COCCN1C2=NC(=NC(=C2)C3(CC3)[S@](=N)(=O)C)C4=C5C=CNC5=NC=C4 [AZD6738] (first compound max 1 µM, 7x7, partner max 10 µM), the Bliss excess is -0.0344 in the test on CHL-1 (Melanoma); 0.0199 in test [1]; -0.0913 in [2]; -0.0382 in test [3]; -0.0835 in [4]; -0.0611 in test [5]. Moreover, the Bliss excess in [6] was -0.0195; in the test on HuO-3N1 (Osteosarcoma), -0.0218; in test [7], -0.0574; in the test with KYM-1 (Rhabdomyosarcoma) it was -0.0214; in test [8], -0.0383; in [9] it was -0.0099. The Bliss excess was -0.0271 in test [10]; -0.0621 in test [11]; -0.0655 in test [12]; -0.0772 in test [13]; -0.0873 in test [14]; -0.0271 in [15]. The Bliss excess in test [16] is -0.0079; in test [17], -0.0732.
In the case of `Cc1c2c(nn1C)CSCc1cc(n(C)n1)CSc1cc(c3ccccc3c1)OCCCc1c(C(=O)O)n(C)c3c-2c(Cl)ccc13` [AZD5991] + C[C@@H]1COCCN1C2=NC(=NC(=C2)C3(CC3)[S@](=N)(=O)C)C4=C5C=CNC5=NC=C4 [AZD6738] (first compound max 1 µM, 7x7, partner max 10 µM), the Bliss excess with CHL-1 (Melanoma) was 0.0789; in test [1], -0.012; in [2], -0.0426; in [3], 0.0282; in [4], 0.0209; in [5], -0.0301. The Bliss excess worked out at 0.0094 in test [6]; 0.0446 in the test on HuO-3N1 (Osteosarcoma); 0.106 in test [7]; 0.1 with KYM-1 (Rhabdomyosarcoma); 0.0485 in test [8]; 0.0521 in test [9]. Besides, the Bliss excess in test [10] was 0.0581; in [11] it was -0.0171; in [12] it was 0.0443; in test [13], 0.0235; in test [14], -0.0023; in test [15], 0.0013. In addition, the Bliss excess in test [16] was 0.0225; in [17], -0.0607.
